The values below come from patent US8217079B2 (priority 2010, dated 2012).

Series [1] concerns PRV-1 gene expression. The conditions noted are these: in vivo; cited from earlier work.
For series [2] the following is noted: patients on cytostatic therapy; cited from earlier work.
Series [3] deals with JAK2^V617F positive Polycythemia Vera. Briefly: Phase II study of ITF2357 in combination with N-hydroxyurea in Polycythemia Vera. In kind it is in vivo, human. An excerpt: A multicentre, randomized, open-label, phase II study testing Givinostat-Hydrochloride-Monohydrate (ITF2357) in combination with N-hydroxyurea (HU) in Polycythemia Vera (PV).
Population in the study: 44 patients of both genders with an established diagnosis of JAK2^V617F positive PV according to the revised WHO criteria, in need of cytoreductive therapy, non-responders to therapeutic doses of HU monotherapy for at least 3 months.
Duration of the treatment: up to a maximum of 24 weeks of continual administration.
Primary objective: To evaluate the efficacy of ITF2357 in combination with HU in patients with JAK2^V617F positive Polycythemia Vera non-responders to therapeutic doses of HU in monotherapy.
Results: Patients response has been evaluated according to the european criteria [as reported in G. Barosi et al. Blood 113, 4829-4833 (2009)].

Series [4] has as its system stem cells obtained from PV or ET patients. The conditions noted are these: sub-micromolar concentrations; cited from earlier work.
The test system of series [5] is PV. To be noted: patients with PV; cited from earlier work.

Consider `NC(=O)NO` [N-hydroxyurea, reference compound], for which the PRV-1 gene expression result in series [1] is “increase”. Further, the “side effects observed (drug tolerance)” value in series [2] was “leg ulcers and buccal aphthous ulcers”.
In the case of `O=C(CCBr)N1CCN(C(=O)CCBr)CC1` [Pipobroman], the “side effects observed (drug tolerance)” value in series [2] is “gastric pain and diarrhea”.
With `CCN(CC)Cc1ccc2cc(COC(=O)Nc3ccc(C(=O)NO)cc3)ccc2c1.Cl` [ITF2357, Diethyl-[6-(4-hydroxycarbamoyl-phenylcarbamoyloxymethyl)-naphthalen-2-ylmethyl]-ammonium chloride], in series [3] (ITF2357 50 mg/day combined with N-hydroxyurea 500 mg/day, preliminary data, 6 patients refractory to previous HU monotherapy), the “control of the clinico-hematologic parameters (response by european criteria)” value is “significant control of the clinico-hematologic parameters”. The “amelioration of the clinical parameters” value in series [3] (in combination with N-hydroxyurea, compared to HU monotherapy, patients with myeloproliferative syndromes, preferably polycythemia vera) is reported as “significant amelioration of the clinical parameters”. For the same compound, in series [4], the “clonogenic activity of stem cells” value is on record as “inhibit the clonogenic activity”.
IFN-α: in series [5], the “efficacy of therapy compared with N-hydroxyurea treatment” value is “more effective”. Besides, in series [1], the PRV-1 expression entry is listed as “significantly reduces”.
